Reference: US20230085578A1, “SYSTEMS AND METHODS FOR TRIPLE-PARAMETRIC OPTICAL MAPPING” (The George Washington University, priority 2021, published 2023)
Where two headings read alike, the source gives them in different places. Values belong to the compound of their own block, whether it stands above or below them.

Test system: mouse hearts
Assay: Triple parametric optical mapping (Vm, Ca2+, NADH) of Langendorff-perfused mouse hearts during drug treatment
Design: Effect on contractions of the heart (electromechanical uncoupling): dose or concentration left out as unconfirmed
Conditions: for APD80 (action potential duration) / AR (anisotropic ratio, CVL to CVT) / CVL (longitudinal conduction velocity) / CVT (transverse conduction velocity) / Ca2+ RT (rise time) / Ca t (calcium decay time constant) / CaTD80 (calcium transient duration) / NADH fluorescence intensity (normalized to first recording of the heart) / Vm RT (rise time) / Vm-Ca2+ delay: Blebbistatin 15 μM, Verapamil 1 μM, mean±SEM
Procedure: Langendorff perfusion: Adult male and female mice on C57BL/6 background were used in this study. Mice were anesthetized by isoflurane inhalation and cervical dislocation was performed. Hearts were quickly excised following thoracotomy and the aorta was cannulated. The heart was attached to a Langendorff perfusion system, hung in a vertical position in a temperature-controlled bath and perfused with a modified Tyrode's solution containing (in mM) 130 NaCl, 24 NaHCO3, 1.2 NaH2PO4, 1 MgCl2, 5.6 Glucose, 4 KCl, 1.8 CaCl2, pH 7.40 and bubbled with carbogen (95% 02 and 5% CO2) at 37° C. Perfusion pressure was maintained at ˜80 mmHg by adjusting the flow rate between 1 and 1.5 ml/min. A platinum bipolar electrode was placed at the center of the anterior surface residing the middle of the field of view. Gentle pressure was applied to the back of the heart as it was pushed up to the front optical glass of the bath using a paddle, allowing the pacing electrode to be held in place. Electrical stimuli were applied to determine the threshold of pacing. Hearts were paced at 1.5× pacing threshold amplitude and 2 ms stimulus duration, only during optical recording. Hearts were paced at varying rates as listed in the figures to determine the restitution properties of the heart under each condition.
Optical Mapping: The heart was subjected to a 10 min equilibration period followed by staining with the voltage- and calcium-sensitive dyes. A 1 ml mixture of RH237 ([…] Tyrode's solution, Biotium 61018) was prepared and immediately injected into the dye port above the cannula over a 3-5 min period. This was followed by a 5 min washout period. Similarly, a 1 ml mixture of Rhod2-AM (30 ul of 1 mg/ml dye stock solution+[…] Tyrode's solution, Thermo Fisher Scientific R1244 and Biotium 59005, respectively) was prepared and immediately injected into the dye port over a 3-5 min period. This was followed by 5 min dye washout period.
The heart was then illuminated by two LED excitation light sources at 365 nm and 520±5 nm wavelengths. While the former induces autofluorescence of NADH in the tissue, the latter excites both RH237 and Rhod2-AM dyes. Control optical recordings of NADH, Vm, and Ca^2+ were simultaneously acquired at 1 kHz sampling rate. NADH, Vm, and Ca^2+ are indicative of […].
[…] […] Optical recordings were once again acquired for each of these conditions as described above.
Data Analysis: Optical data of NADH, transmembrane potential and calcium were analyzed using a custom Matlab software, Rhythm 3.0, which is available in an open-source format on Github. Rhythm 3.0 which is an upgraded version of Rhythm 1.2, incorporates NADH visualization and analysis features as well as the ability to calculate delay in transmembrane potential to intracellular calcium activation (Vm-Ca^2+ Delay). Rhythm software was written to analyze data formats generated by SciMedia systems but can be modified to analyze other data formats.
Ten different parameters were measured from the 3 optical signals that were simultaneously recorded under each condition using the Rhythm 3.0 software to determine MECC. The ten parameters include, from transmembrane potential: (1) rise time (Vm RT), (2) action potential duration (APD80), (3) transverse and (4) longitudinal conduction velocity (CVT and CVL) and (5) anisotropic ratio (AR), from intracellular calcium: (6) rise time (Ca^2+ RT), (7) calcium transient duration (CaTD80), (8) calcium decay time constant (t), (9) Vm-Ca^2+ delay and (10) NADH fluorescence intensity.

Structure (SMILES): Nc1ccncc1 [4-AP, 4-aminopyridine]
- BCL at which pacing of the hearts was prevented (no 1:1 capture) (4-AP 7 mM in presence of blebbistatin): < 125 ms
- Change in CVT (in words) (150 ms BCL, 4-AP 7 mM vs blebbistatin): slowed
- Change in Ca2+ RT (in words) (150 ms BCL, blebbistatin vs Control, 4-AP 7 mM vs blebbistatin): prolonged
- APD80 (action potential duration) (BCL 125, 4-AP 7 mM): 69.09 ± 7.52
- AR (anisotropic ratio, CVL to CVT) (BCL 125, 4-AP 7 mM): 1.80 ± 0.19
- CVL (longitudinal conduction velocity) (BCL 125, 4-AP 7 mM): 0.47 ± 0.07
- CVT (transverse conduction velocity) (BCL 125, 4-AP 7 mM): 0.27 ± 0.05
- Ca2+ RT (rise time) (BCL 125, 4-AP 7 mM): 6.82 ± 1.39
- Ca t (calcium decay time constant) (BCL 125, 4-AP 7 mM): 27.106 ± 6.26
- CaTD80 (calcium transient duration) (BCL 125, 4-AP 7 mM): 79.32 ± 2.28
- NADH fluorescence intensity (normalized to first recording of the heart) (BCL 125, 4-AP 7 mM): 0.98 ± 0.07
- Vm RT (rise time) (BCL 125, 4-AP 7 mM): 5.15 ± 0.29
- Vm-Ca2+ delay (BCL 125, 4-AP 7 mM): −1.88 ± 1.79
- APD80 (action potential duration) (BCL 150, 4-AP 7 mM): 78.13 ± 3.52
- AR (anisotropic ratio, CVL to CVT) (BCL 150, 4-AP 7 mM): 1.90 ± 0.45
- CVL (longitudinal conduction velocity) (BCL 150, 4-AP 7 mM): 0.53 ± 0.09
- CVT (transverse conduction velocity) (BCL 150, 4-AP 7 mM): 0.28 ± 0.05
- Ca2+ RT (rise time) (BCL 150, 4-AP 7 mM): 7.05 ± 1.03
- Ca t (calcium decay time constant) (BCL 150, 4-AP 7 mM): 30.94 ± 5.51
- CaTD80 (calcium transient duration) (BCL 150, 4-AP 7 mM): 88.37 ± 6.37
- NADH fluorescence intensity (normalized to first recording of the heart) (BCL 150, 4-AP 7 mM): 0.97 ± 0.06
- Vm RT (rise time) (BCL 150, 4-AP 7 mM): 4.94 ± 0.63
- Vm-Ca2+ delay (BCL 150, 4-AP 7 mM): −1.71 ± 2.13
- APD80 (action potential duration) (BCL 200, 4-AP 7 mM): 84.56 ± 6.68
- AR (anisotropic ratio, CVL to CVT) (BCL 200, 4-AP 7 mM): 1.97 ± 0.37
- CVL (longitudinal conduction velocity) (BCL 200, 4-AP 7 mM): 0.66 ± 0.06
- CVT (transverse conduction velocity) (BCL 200, 4-AP 7 mM): 0.32 ± 0.05
- Ca2+ RT (rise time) (BCL 200, 4-AP 7 mM): 7.04 ± 1.57
- Ca t (calcium decay time constant) (BCL 200, 4-AP 7 mM): 37.11 ± 11.58
- CaTD80 (calcium transient duration) (BCL 200, 4-AP 7 mM): 96.41 ± 8.18
- NADH fluorescence intensity (normalized to first recording of the heart) (BCL 200, 4-AP 7 mM): 0.97 ± 0.07
- Vm RT (rise time) (BCL 200, 4-AP 7 mM): 4.79 ± 0.23
- Vm-Ca2+ delay (BCL 200, 4-AP 7 mM): −1.48 ± 1.38
- Change in APD80 (in words) (all tested pacing rates, vs blebbistatin): prolonged

- Change in CVT (in words): faster
- Change in Ca2+ RT (in words): increased
- Change in NADH intensity (in words): reduced
- Number of the 10 measured parameters altered: 2
Structure (SMILES): Cc1ccc2c(c1)C(=O)C1(O)CCN(c3ccccc3)C1=N2 (centres unmarked) [Blebbistatin, blebbistatin]
- Effect on contractions of the heart (electromechanical uncoupling) (blebbistatin): abolished contractions

Structure (SMILES): COc1ccc(CCN(C)CCCC(C#N)(c2ccc(OC)c(OC)c2)C(C)C)cc1OC (centres unmarked) [Verapamil, verapamil]
- APD80 (action potential duration) (BCL 80): 31.06 ± 0.00
- CVL (longitudinal conduction velocity) (BCL 80): 0.28 ± 0.00
- CVT (transverse conduction velocity) (BCL 80): 0.21 ± 0.00
- Ca2+ RT (rise time) (BCL 80): 8.09 ± 0.00
- Ca t (calcium decay time constant) (BCL 80): 13.71 ± 0.00
- CaTD80 (calcium transient duration) (BCL 80): 60.74 ± 0.00
- NADH fluorescence intensity (normalized to first recording of the heart) (BCL 80): 1.04 ± 0.00
- Vm-Ca2+ delay (BCL 80): −2.81 ± 0.00
- APD80 (action potential duration) (BCL 90): 44.72 ± 9.21
- CVL (longitudinal conduction velocity) (BCL 90): 0.35 ± 0.03
- CVT (transverse conduction velocity) (BCL 90): 0.18 ± 0.04
- Ca2+ RT (rise time) (BCL 90): 8.16 ± 1.36
- Ca t (calcium decay time constant) (BCL 90): 17.15 ± 1.92
- CaTD80 (calcium transient duration) (BCL 90): 63.46 ± 2.71
- NADH fluorescence intensity (normalized to first recording of the heart) (BCL 90): 0.98 ± 0.07
- Vm RT (rise time) (BCL 90): 4.65 ± 0.10
- Vm-Ca2+ delay (BCL 90): −6.07 ± 2.54
- APD80 (action potential duration) (BCL 100): 45.75 ± 10.51
- CVL (longitudinal conduction velocity) (BCL 100): 0.60 ± 0.02
- CVT (transverse conduction velocity) (BCL 100): 0.23 ± 0.03
- Ca2+ RT (rise time) (BCL 100): 9.54 ± 0.43
- Ca t (calcium decay time constant) (BCL 100): 20.41 ± 3.36
- CaTD80 (calcium transient duration) (BCL 100): 69.61 ± 3.02
- NADH fluorescence intensity (normalized to first recording of the heart) (BCL 100): 0.99 ± 0.08
- Vm RT (rise time) (BCL 100): 4.70 ± 0.39
- Vm-Ca2+ delay (BCL 100): −5.22 ± 1.73
- APD80 (action potential duration) (BCL 125, 4-AP 7 mM): 49.46 ± 6.20
- CVL (longitudinal conduction velocity) (BCL 125, 4-AP 7 mM): 0.59 ± 0.03
- CVT (transverse conduction velocity) (BCL 125, 4-AP 7 mM): 0.28 ± 0.03
- Ca2+ RT (rise time) (BCL 125, 4-AP 7 mM): 8.28 ± 0.96
- Ca t (calcium decay time constant) (BCL 125, 4-AP 7 mM): 32.14 ± 11.32
- CaTD80 (calcium transient duration) (BCL 125, 4-AP 7 mM): 77.16 ± 7.51
- NADH fluorescence intensity (normalized to first recording of the heart) (BCL 125, 4-AP 7 mM): 0.99 ± 0.08
- Vm RT (rise time) (BCL 125, 4-AP 7 mM): 4.57 ± 0.25
- Vm-Ca2+ delay (BCL 125, 4-AP 7 mM): −7.06 ± 4.13
- APD80 (action potential duration) (BCL 150, 4-AP 7 mM): 54.39 ± 11.88
- CVL (longitudinal conduction velocity) (BCL 150, 4-AP 7 mM): 0.67 ± 0.02
- CVT (transverse conduction velocity) (BCL 150, 4-AP 7 mM): 0.29 ± 0.01
- Ca2+ RT (rise time) (BCL 150, 4-AP 7 mM): 9.31 ± 0.93
- Ca t (calcium decay time constant) (BCL 150, 4-AP 7 mM): 32.38 ± 4.88
- CaTD80 (calcium transient duration) (BCL 150, 4-AP 7 mM): 89.183 ± 11.79
- NADH fluorescence intensity (normalized to first recording of the heart) (BCL 150, 4-AP 7 mM): 0.99 ± 0.08
- Vm RT (rise time) (BCL 150, 4-AP 7 mM): 4.70 ± 0.46
- Vm-Ca2+ delay (BCL 150, 4-AP 7 mM): −5.24 ± 2.31
- APD80 (action potential duration) (BCL 200, 4-AP 7 mM): 55.28 ± 2.94
- CVL (longitudinal conduction velocity) (BCL 200, 4-AP 7 mM): 0.56 ± 0.09
- CVT (transverse conduction velocity) (BCL 200, 4-AP 7 mM): 0.30 ± 0.05
- Ca2+ RT (rise time) (BCL 200, 4-AP 7 mM): 9.14 ± 1.31
- Ca t (calcium decay time constant) (BCL 200, 4-AP 7 mM): 39.09 ± 5.88
- CaTD80 (calcium transient duration) (BCL 200, 4-AP 7 mM): 106.68 ± 19.92
- NADH fluorescence intensity (normalized to first recording of the heart) (BCL 200, 4-AP 7 mM): 0.99 ± 0.07
- Vm RT (rise time) (BCL 200, 4-AP 7 mM): 4.72 ± 0.28
- Vm-Ca2+ delay (BCL 200, 4-AP 7 mM): −8.14 ± 4.48
